Among the data in ChEMBL document CHEMBL4020715, “Structure-activity relationship study of vitamin D analogs with oxolane group in their side chain” (Eur J Med Chem, 2017) are Efficacy, Activity and EC50 values, retold here.

Activity calls are given as the source filed them. The rule behind the calls is not given here. A value given as a limit tells only on which side of the number the result lay.

What all share (format): cell-based
The target in test [1] is T1, Vitamin D3 receptor A (Danio rerio) (UniProt Q9PTN2).
T1 sequence (whole entry): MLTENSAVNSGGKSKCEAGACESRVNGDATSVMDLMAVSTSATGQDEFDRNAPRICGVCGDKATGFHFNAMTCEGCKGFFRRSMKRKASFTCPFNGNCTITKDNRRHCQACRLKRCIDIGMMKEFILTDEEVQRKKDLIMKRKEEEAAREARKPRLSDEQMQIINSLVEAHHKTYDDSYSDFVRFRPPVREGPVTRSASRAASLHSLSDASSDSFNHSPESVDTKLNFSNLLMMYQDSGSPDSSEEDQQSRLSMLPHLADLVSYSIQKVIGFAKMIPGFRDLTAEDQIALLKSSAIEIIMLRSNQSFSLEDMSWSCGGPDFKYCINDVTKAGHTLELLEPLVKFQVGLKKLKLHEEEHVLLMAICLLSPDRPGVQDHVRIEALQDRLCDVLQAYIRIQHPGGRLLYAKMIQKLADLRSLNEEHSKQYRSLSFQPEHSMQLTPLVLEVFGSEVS
As to the kind of experiment: Agonist activity at zebrafish VDR LBD (156 to 453 residues) expressed in HEK293 EBNA cells harboring human CYP24-Tk-Luc plasmid assessed as induction of CYP24a1 gene at 1000 nM after 18 hrs by dual-luciferase transcriptional reporter gene assay relative to control. In general terms: Reporter assays use an easily measured gene product as a stand-in for the process of interest.

For test [2], the target named is T2, Vitamin D3 receptor (Homo sapiens) (UniProt P11473).
T2 sequence (whole entry): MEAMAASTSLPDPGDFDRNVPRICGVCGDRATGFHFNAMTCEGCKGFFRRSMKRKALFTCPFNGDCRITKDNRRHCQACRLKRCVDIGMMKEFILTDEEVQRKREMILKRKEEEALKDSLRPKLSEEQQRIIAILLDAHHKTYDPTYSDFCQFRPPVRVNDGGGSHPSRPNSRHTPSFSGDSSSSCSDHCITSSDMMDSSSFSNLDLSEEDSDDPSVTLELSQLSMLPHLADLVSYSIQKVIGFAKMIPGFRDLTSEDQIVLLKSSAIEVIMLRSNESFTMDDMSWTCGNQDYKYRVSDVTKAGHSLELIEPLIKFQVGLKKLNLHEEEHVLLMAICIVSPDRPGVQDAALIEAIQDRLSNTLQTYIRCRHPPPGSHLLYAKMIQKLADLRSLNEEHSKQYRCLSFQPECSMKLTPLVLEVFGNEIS
As to the kind of experiment: Agonist activity at VP16-fused human full length VDR expressed in COS7 cells assessed as corepressor Gal4 DBD-fused SMRT NRID release at 10 to 1000 nM after 48 hrs by luciferase reporter gene assay based mammalian two-hybrid assay.

In test [3] the target is T1, Vitamin D3 receptor A (Danio rerio). As to the kind of experiment: Agonist activity at zebrafish VDR LBD (156 to 453 residues) expressed in HEK293 EBNA cells harboring human CYP24-Tk-Luc plasmid assessed as induction of CYP24a1 gene at 100 nM after 18 hrs by dual-luciferase transcriptional reporter gene assay.
Another test addresses T3, Vitamin D3 receptor A (Danio rerio, UniProt Q9PTN2).
T3 sequence (Q9PTN2 whole entry): T1 sequence (whole entry)
Put plainly: Agonist activity at zebrafish VDR LBD (156 to 453 residues) expressed in HEK293 EBNA cells harboring human CYP24-Tk-Luc plasmid assessed as induction of CYP24a1 gene after 18 hrs by dual-luciferase transcriptional reporter gene assay.

The target in test [4] is T2, Vitamin D3 receptor (Homo sapiens). As to the kind of experiment: Agonist activity at VP16-fused human full length VDR expressed in COS7 cells assessed as corepressor Gal4 DBD-fused NCOR NRID release at 10 to 1000 nM after 48 hrs by luciferase reporter gene assay based mammalian two-hybrid assay.
The target in test [5] is T1, Vitamin D3 receptor A (Danio rerio). As to the kind of experiment: Agonist activity at zebrafish VDR LBD (156 to 453 residues) expressed in HEK293 EBNA cells harboring human CYP24-Tk-Luc plasmid assessed as induction of CYP24a1 gene at 0.1 nM after 18 hrs by dual-luciferase transcriptional reporter gene assay.

Take `C=C1/C(=C\C=C2/CCC[C@]3(C)[C@@H]([C@H](C)CCCC(C)(C)O)CC[C@@H]23)C[C@@H](O)C[C@H]1O`: the Efficacy in test [1] stood at 100%.

As a reminder, the EC50 is the midpoint of the concentration-response curve. Take `C=C1/C(=C\C=C2/CCC[C@]3(C)[C@@H]([C@H](C)[C@@H]4CC[C@@H](C(C)(C)O)O4)CC[C@@H]23)C[C@@H](O)C[C@H]1O`: the result in test [2], in test [3] and in test [4] was Active. For the same compound, in test [1], the Efficacy is 90%. The EC50 at Vitamin D3 receptor A was more than 100 nM.

Regarding `C=C1/C(=C\C=C2/CCC[C@@]3(C)[C@H]2CC[C@@H]3[C@]2(C)C[C@@H](CC(C)(C)O)CO2)C[C@@H](O)C[C@@H]1O`, in test [5], the outcome was Active.

On to `C=C1/C(=C\C=C2/CCC[C@]3(C)[C@@H]([C@H](C)[C@@H]4CC[C@H](C(C)(C)O)O4)CC[C@@H]23)C[C@@H](O)C[C@H]1O`, for which the result in test [2] and in test [4] was Active. Moreover, in test [1], the Efficacy stood at 47%. Besides, the EC50 at Vitamin D3 receptor A was more than 100 nM.

For the compound `C=C1/C(=C\C=C2/CCC[C@]3(C)[C@@H]([C@H](C)[C@H]4CC[C@@H](C(C)(C)O)O4)CC[C@@H]23)C[C@@H](O)C[C@H]1O`, the outcome in test [2] and in test [4] was Active. For the same compound, the Efficacy in test [1] came to 100%. For the same compound, the EC50 at Vitamin D3 receptor A is more than 100 nM.
